Experimental data published in publication PMC8699473, “An Easily Expandable Multi-Drug LC-MS Assay for the Simultaneous Quantification of 57 Oral Antitumor Drugs in Human Plasma” (Cancers, 2021).

Experiment: Long-term stability in spiked pooled human plasma

| Compound | Long-term stability, 1 month, -20°C Accuracy [%] (validation standard 2xLLOV) | Long-term stability, 1 month, -80°C Accuracy [%] (validation standard 2xLLOV) | Long-term stability, 2 month, -20°C Accuracy [%] (validation standard 2xLLOV) | Long-term stability, 2 month, -80°C Accuracy [%] (validation standard 2xLLOV) | Long-term stability, 3 month, -20°C Accuracy [%] (validation standard 2xLLOV) | Long-term stability, 3 month, -80°C Accuracy [%] (validation standard 2xLLOV) | Long-term stability, 6 weeks, 4°C, without daylight Accuracy [%] (validation standard 2xLLOV) | Long-term stability, 1 month, -20°C Accuracy [%] (validation standard LLOV) | Long-term stability, 1 month, -80°C Accuracy [%] (validation standard LLOV) | Long-term stability, 2 month, -20°C Accuracy [%] (validation standard LLOV) | Long-term stability, 2 month, -80°C Accuracy [%] (validation standard LLOV) | Long-term stability, 3 month, -20°C Accuracy [%] (validation standard LLOV) | Long-term stability, 3 month, -80°C Accuracy [%] (validation standard LLOV) | Long-term stability, 6 weeks, 4°C, without daylight Accuracy [%] (validation standard LLOV) | Long-term stability, 1 month, -20°C Accuracy [%] (validation standard MOV) | Long-term stability, 1 month, -80°C Accuracy [%] (validation standard MOV) | Long-term stability, 2 month, -20°C Accuracy [%] (validation standard MOV) | Long-term stability, 2 month, -80°C Accuracy [%] (validation standard MOV) | Long-term stability, 3 month, -20°C Accuracy [%] (validation standard MOV) | Long-term stability, 3 month, -80°C Accuracy [%] (validation standard MOV) | also measured |
| --- | --- | --- | --- | --- | --- | --- | --- | --- | --- | --- | --- | --- | --- | --- | --- | --- | --- | --- | --- | --- | --- |
| COc1cc(N2CCC(N3CCN(C)CC3)CC2)ccc1Nc1ncc(Cl)c(Nc2ccccc2P(C)(C)=O)n1 [Brigatinib] | 92.4 | 92.1 | 105.4 | 110.2 | 96.3 | 99.0 | 94.2 | 93.6 | 88.3 | 100.6 | 96.7 | 92.1 | 93.0 | 89.6 | 100.8 | 96.9 | 108.5 | 107.5 | 105.5 | 106.8 | Long-term stability, 6 weeks, 4°C, without daylight Accuracy [%] (validation standard MOV): 104.7%; Long-term stability, 1 month, -20°C Accuracy [%] (validation standard ULOV): 100.4%; Long-term stability, 1 month, -80°C Accuracy [%] (validation standard ULOV): 95.0%; Long-term stability, 2 month, -20°C Accuracy [%] (validation standard ULOV): 105.8%; Long-term stability, 2 month, -80°C Accuracy [%] (validation standard ULOV): 108.0%; Long-term stability, 3 month, -20°C Accuracy [%] (validation standard ULOV): 102.6%; Long-term stability, 3 month, -80°C Accuracy [%] (validation standard ULOV): 98.7%; Long-term stability, 6 weeks, 4°C, without daylight Accuracy [%] (validation standard ULOV): 98.6% |
| COC(=O)c1ccc2c(c1)NC(=O)/C2=C(\Nc1ccc(N(C)C(=O)CN2CCN(C)CC2)cc1)c1ccccc1 [Nintedanib] | 97.2 | 98.9 | 103.8 | 99.7 | 90.3 | 91.1 | 94.4 | 102.0 | 102.1 | 96.9 | 94.3 | 88.2 | 88.3 | 86.6 | 95.5 | 91.4 | 98.9 | 99.7 | 97.2 | 94.7 | Long-term stability, 6 weeks, 4°C, without daylight Accuracy [%] (validation standard MOV): 94.4%; Long-term stability, 1 month, -20°C Accuracy [%] (validation standard ULOV): 94.5%; Long-term stability, 1 month, -80°C Accuracy [%] (validation standard ULOV): 87.4%; Long-term stability, 2 month, -20°C Accuracy [%] (validation standard ULOV): 97.0%; Long-term stability, 2 month, -80°C Accuracy [%] (validation standard ULOV): 94.8%; Long-term stability, 3 month, -20°C Accuracy [%] (validation standard ULOV): 92.9%; Long-term stability, 3 month, -80°C Accuracy [%] (validation standard ULOV): 91.8%; Long-term stability, 6 weeks, 4°C, without daylight Accuracy [%] (validation standard ULOV): 85.9% |
| Cc1nc(Nc2ncc(C(=O)Nc3c(C)cccc3Cl)s2)cc(N2CCN(CCO)CC2)n1 [Dasatinib] | 99.2 | 92.5 | 98.2 | 96.3 | 102.0 | 99.1 | 72.6 | 108.6 | 89.0 | 82.2 | 84.9 | 81.3 | 85.5 | 79.4 | 97.7 | 91.3 | 92.8 | 92.3 | 102.9 | 101.1 | Long-term stability, 6 weeks, 4°C, without daylight Accuracy [%] (validation standard MOV): 102.3%; Long-term stability, 1 month, -20°C Accuracy [%] (validation standard ULOV): 97.7%; Long-term stability, 1 month, -80°C Accuracy [%] (validation standard ULOV): 93.4%; Long-term stability, 2 month, -20°C Accuracy [%] (validation standard ULOV): 95.6%; Long-term stability, 2 month, -80°C Accuracy [%] (validation standard ULOV): 100.4%; Long-term stability, 3 month, -20°C Accuracy [%] (validation standard ULOV): 104.5%; Long-term stability, 3 month, -80°C Accuracy [%] (validation standard ULOV): 105.8%; Long-term stability, 6 weeks, 4°C, without daylight Accuracy [%] (validation standard ULOV): 97.9% |
| Cc1cc(Nc2ncc(Cl)c(Nc3ccccc3S(=O)(=O)C(C)C)n2)c(OC(C)C)cc1C1CCNCC1 [Ceritinib] | 94.3 | 89.5 | 94.4 | 96.4 | 91.8 | 93.4 | 77.8 | 101.5 | 96.1 | 99.7 | 103.7 | 96.9 | 100.3 | 78.9 | 93.3 | 93.7 | 94.6 | 95.5 | 94.1 | 95.7 | Long-term stability, 6 weeks, 4°C, without daylight Accuracy [%] (validation standard MOV): 104.9%; Long-term stability, 1 month, -20°C Accuracy [%] (validation standard ULOV): 97.3%; Long-term stability, 1 month, -80°C Accuracy [%] (validation standard ULOV): 94.0%; Long-term stability, 2 month, -20°C Accuracy [%] (validation standard ULOV): 99.1%; Long-term stability, 2 month, -80°C Accuracy [%] (validation standard ULOV): 100.5%; Long-term stability, 3 month, -20°C Accuracy [%] (validation standard ULOV): 101.8%; Long-term stability, 3 month, -80°C Accuracy [%] (validation standard ULOV): 100.0%; Long-term stability, 6 weeks, 4°C, without daylight Accuracy [%] (validation standard ULOV): 97.9% |
